Experimental data from US20240019429A1, “METHODS AND RELATED ASPECTS FOR DETERMINING BINDING KINETICS OF LIGANDS” (ARIZONA BOARD OF REGENTS ON BEHALF OF ARIZONA STATE …, priority 2022, published 2024).
Each block holds one compound with its values, some of them ahead of it.

Legend:
[1] = target: T1, calmodulin (Homo sapiens, UniProt P0DP23); assay: SPR-OBL equilibrium analysis of ion binding to calmodulin OBL; conditions: equilibrium analysis of AC response, 100 times diluted PBS buffer
T1 construct: purchased Sigma Aldrich
Source text: Calmodulin is a calcium sensing protein that plays a central role in cell signaling, muscle contraction and cell division. We fabricated a calmodulin OBL and flowed different concentrations of Ca^2+ over the surface. The binding of Ca^2+ to calmodulin would lead to charge and conformation change of the OBL but with small mass change (FIG. 7a). […] Thus, we only measured the magnitude of the equilibrium state. […] We note that calmodulin is negatively charged, so Ca^2+ binding should decrease the amplitude of the AC signal. The increase of AC signal in FIG. 7b is due to artifacts in data processing when correcting the background charging. The raw data has decreased signal but much lower signal-to-noise ratio (not shown). Magnesium would also bind to calmodulin with a lower affinity compared with calcium.
(§1) Binding kinetics measurement.

[2] = target: T2, Src kinase (Homo sapiens, UniProt P12931); assay: SPR-OBL phosphorylation kinetics of SRCtide by Src kinase; type: biochemical; conditions: ATP present
T2 construct: The active full length SRC protein was purchased from Abcam; purchased Abcam
Source text: Since SPR-OBL is able to record mass and charge changes at the same time, it is particularly suitable for studying complex enzymatic processes that involve multiple kinetic steps and size and charge changes. Phosphorylation is one of such reactions that includes binding of the kinase to the substrate, adding a phosphate to the substrate, and unbinding of the kinase, where each step accompanies mass or charge change. Despite the importance of phosphorylation in many basic cellular signaling processes and its close relationship with various diseases and cancers, traditional techniques including fluorescence, western blot, and mass spectrometry are unable to resolve the kinetic process in real-time, and each kinetic step needs to be measured separately, limiting the measurement efficiency. In contrast, SPR-OBL can measure multiple steps of the enzyme catalytic reaction in real-time and extract several kinetic parameters in a single measurement. We studied the phosphorylation of SRCtide as an example. SRCtide that was a peptide containing 14 amino acid with the sequence GEEPLYWSFPAKKK (SEQ ID NO: 1) was modified on a streptavidin OBL, which serves as the substrate of the enzyme Src kinase. […]
where E and S are the enzyme and substrate, ES is the complex, and P is the phosphorylated product, respectively; and k denotes the kinetic constant in each step. We measured the SPR-OBL response of different concentrations of Src in the presence of ATP and the results are shown in FIG. 8b. […]
where [E0], [S0] and [P] are concentration of SRC, SRCtide and the product, respectively. The Michaelis constant (KM) and catalytic constant (k2) can be determined to be 4.4 nM and 5.5×10^−4 s^−1 by fitting the AC component (FIG. 8d) to Eq. 1. Knowing KM and k2 the association rate constant (k1) and dissociation rate constant (k−1) can be determined by fitting the DC component (FIG. 8c) to the following equations: […]
(§2) Fabrication of OBL. […] The surface coverage of streptavidin on the PEG layer was measured to be 64%, and 46% of the streptavidin could oscillate effectively. […]

[3] = target: KcsA-Kv1.3; assay: SPR-OBL binding kinetics of small molecules to KcsA-Kv1.3 nanodisc on streptavidin OBL; conditions: AC response, 40 times diluted nanodisc buffer
Source text: Unlike macromolecules that are inclined to have both mass and charge changes upon binding, small molecules are more likely to have charge change with little mass change. As such, measuring charge could be more sensitive for small molecules. To highlight this advantage of SRR-OBL and its potential for drug screening, we measured two small molecule drug candidates, compound 1 and PAP-1, binding to their target KcsA-Kv1.3, which is a chimeric membrane protein. The KcsA-Kv1.3 was encapsulated in a self-assembled phospholipid bilayer nanodisc that provides a nativelike environment for the membrane proteins to retain the structure and function. Despite the importance of membrane protein as drug targets, measuring the interaction with small molecule drug candidates has been challenging for traditional mass-sensitive technologies, due to the huge mass difference between the small molecule and the membrane protein complex. Before adding samples, 40 times diluted nanodisc buffer was flowed over the surface for 200 seconds to establish the baseline. The binding of the small molecule to KcsA-Kv1.3 nanodisc caused a charge change on the OBL, which leads to an AC response. As mentioned before, small molecule would only introduce a minor mass change. Therefore, the DC response of OBL is not obvious. […] According to a previous study that temperature would influence the binding kinetics between KcsA-Kv1.3 and small molecule due to the effect on the flexibility of lipid bilayer, we repeated the experiment under 30° C. and found the kinetic constants became (2.7±0.5)×10^4 M^−1s^−1, (1.9±0.4)×10^−2 s^−1 and 6.8±1.2×10 2 nM, as shown in FIG. 6c. The results are close to the value in literature. […] To verify the binding was specific, we performed control experiments by directly injecting compound 1 and PAP-1 to a streptavidin OBL without nanodisc at 30° C.
Fabrication of OBL. The sensor chip (a cover glass coated with 43 nm Au) was rinsed by DI water and ethanol for twice. Then it was annealed by hydrogen flame to further remove surface contaminants. To fabricate the streptavidin OBL, the chip was first dipped in a mixture of 1 mM thiol-PEG2k and 100 μM thiol-PEG10k-bioitin in 1×PBS overnight. The chip was dried with N2 and a silicone cell was mounted on the chip surface for holding solution. Next, the surface was incubated in 0.2 mg/mL streptavidin in PBS for 30 mins. The functionalized surface was carefully rinsed with PBS for 6 times. Note that the solution should not be completely removed from the cell during the rinsing process, and any air bubbles should be avoided as well, because the tethered protein could be irreversibly absorbed on the surface once exposed to air. The surface coverage of streptavidin on the PEG layer was measured to be 64%, and 46% of the streptavidin could oscillate effectively. The streptavidin OBL was later used to couple biotinylated proteins. To couple KcsA-Kv1.3 nanodisc, 70 μg/mL biotinylated KcsA-Kv1.3 nanodisc in nanodisc buffer was added to the cell and incubated for 30 min. Similarly, the biotinylated SRCtide was immobilized on the streptavidin OBL by incubating in 33 μg/mL SRCtide in kinase buffer containing 5 mM MgCl2 and 1 mM HEPES (pH 7.4) for 30 mins.
as §1

[4] = target: T3, streptavidin OBL (Streptomyces avidinii, UniProt P22629); assay: Control experiment: small molecules injected to streptavidin OBL without nanodisc; type: binding; conditions: streptavidin OBL without nanodisc at 30° C.
T3 construct: purchased Thermo Fisher Scientific
Source text: Unlike macromolecules that are inclined to have both mass and charge changes upon binding, small molecules are more likely to have charge change with little mass change. As such, measuring charge could be more sensitive for small molecules. To highlight this advantage of SRR-OBL and its potential for drug screening, we measured two small molecule drug candidates, compound 1 and PAP-1, binding to their target KcsA-Kv1.3, which is a chimeric membrane protein. The KcsA-Kv1.3 was encapsulated in a self-assembled phospholipid bilayer nanodisc that provides a nativelike environment for the membrane proteins to retain the structure and function. Despite the importance of membrane protein as drug targets, measuring the interaction with small molecule drug candidates has been challenging for traditional mass-sensitive technologies, due to the huge mass difference between the small molecule and the membrane protein complex. Before adding samples, 40 times diluted nanodisc buffer was flowed over the surface for 200 seconds to establish the baseline. The binding of the small molecule to KcsA-Kv1.3 nanodisc caused a charge change on the OBL, which leads to an AC response. […]
as §2

T3 sequence (P22629 37-163 limits assumed): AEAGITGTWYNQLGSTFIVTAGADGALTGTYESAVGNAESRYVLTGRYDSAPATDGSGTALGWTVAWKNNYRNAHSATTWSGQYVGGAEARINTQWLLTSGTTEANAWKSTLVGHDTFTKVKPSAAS

Kd [1]: 35 µM
Compound: [Mg+2] [Mg^2+, Magnesium]

catalytic constant (k2) ([2]; fit of AC component to Eq. 1 (EQSS)): 0.00055 s⁻¹
association rate constant (k1) ([2]; fit of DC component): 1.3×10^4
dissociation rate constant (k−1) ([2]; fit of DC component): 2e-06 s⁻¹
Compound: SRCtide: peptide containing 14 amino acid with the sequence GEEPLYWSFPAKKK (SEQ ID NO: 1), substrate of Src kinase

Kd [1]: 1.9 µM
Compound: [Ca+2] [Ca^2+, calcium ion]

Compound: O=c1ccc2c(OCCCCOc3ccccc3)c3ccoc3cc2o1 [PAP-1]
Kd ([3]; 25° C.): 65 ± 11 µM
ka ([3]; 25° C.): (3.8±0.6)×10^2 M^−1 s^−1
kd ([3]; 25° C.): (2.3±0.1)×10^−2 s^−1
Kd ([3]; 30° C.): 210 µM
ka ([3]; 30° C.): (4.8±0.4)×10^2 M^−1s^−1
kd ([3]; 30° C.): (9.6±1.1)×10^−2 s^−1
response on streptavidin OBL (nonspecific binding control) [4]: only small response
